Here are results for 26 compounds from patent US10047087B2, “Substituted pyrazolo[1,5-A] pyridine as tropomyosin receptor kinase (TrK) inhibitors” (Dr. Reddy's Laboratories Ltd., priority 2011, dated 2018).

Structures are written as SMILES.

T1 sequence (P04629 33-796): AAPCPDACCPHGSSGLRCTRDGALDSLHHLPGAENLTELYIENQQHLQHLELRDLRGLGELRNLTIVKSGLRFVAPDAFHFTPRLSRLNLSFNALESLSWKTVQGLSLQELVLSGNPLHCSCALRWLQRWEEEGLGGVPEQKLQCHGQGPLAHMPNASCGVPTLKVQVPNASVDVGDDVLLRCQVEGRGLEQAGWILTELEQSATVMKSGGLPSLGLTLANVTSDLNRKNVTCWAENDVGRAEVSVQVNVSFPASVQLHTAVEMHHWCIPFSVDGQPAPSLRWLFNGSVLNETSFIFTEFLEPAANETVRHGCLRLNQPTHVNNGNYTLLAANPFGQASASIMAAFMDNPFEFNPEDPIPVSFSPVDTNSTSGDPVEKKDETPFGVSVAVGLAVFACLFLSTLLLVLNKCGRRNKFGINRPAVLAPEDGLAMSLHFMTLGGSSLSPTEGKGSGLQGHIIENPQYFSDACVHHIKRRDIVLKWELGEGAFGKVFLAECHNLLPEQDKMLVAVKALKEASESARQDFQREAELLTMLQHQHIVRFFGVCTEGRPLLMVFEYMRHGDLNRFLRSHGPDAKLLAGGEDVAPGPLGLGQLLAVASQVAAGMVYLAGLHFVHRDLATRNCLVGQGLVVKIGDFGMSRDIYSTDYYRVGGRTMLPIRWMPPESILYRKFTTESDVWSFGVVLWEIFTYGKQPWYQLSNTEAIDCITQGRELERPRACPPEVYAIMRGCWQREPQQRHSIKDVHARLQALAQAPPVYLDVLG

One test has as its target T1, TrkA kinase (Homo sapiens, UniProt P04629).
T1 construct: purchased Upstate, USA
In words: In vitro TrkA inhibitory activity using TR-FRET assay. Type of test: biochemical. Conditions: 5 ng TrkA, 500 μM ATP, both bounds given in nm, read-out: TrkA inhibitory activity in-vitro IC50. As to the method: Determination of In Vitro TrkA Inhibitory Activity Using TR-FRET Assay
Compounds were screened in the TR-FRET assay with TrkA kinase. 5 ng of TrkA [Upstate, USA] kinase was used for assay. The compound was incubated with the kinase for 30 minutes at 20-35° C. After the incubation, substrate mix [40 nM Ultra light poly GT (Perkin Elmer, USA) and 500 μM ATP] was added. The above reaction was stopped by the addition of 40 mM EDTA after 30 minutes. The Eu-labelled antiphospho-tyrosine antibody [Perkin Elmer, USA] was added at 0.5 nM and the fluorescence emission at 615 nm/665 nm [excitation at 340 nm] was measured. The compounds were initially screened at 100 nM, 1 μM and 10 μM concentrations. The potent compounds with >25% inhibition at 1 μM of TrkA were taken for the full dose response studies. The final DMSO concentration in the assay was […]. For IC50 determination, ⅓^rd serial dilution was made from the 20 mM DMSO stock solution. 2 μl of these were transferred to the test wells containing 20 μl reaction mixture [Total reaction volume 22 μl]. The fluorescence was measured in Perkin Elmer Wallac 1420 Multilabel Counter Victor 3. The IC50 was determined by fitting the dose response data to a sigmoidal curve fitting equation using GraphPad Prism software version 5.
For `O=C(NS(=O)(=O)C1CCCCC1)c1cnn2ccc(N3CCC[C@@H]3c3cc(F)ccc3F)cc12` [Example 12, (R)-N-(cyclohexylsulfonyl)-5-(2-(2,5-difluorophenyl)pyrrolidin-1-yl)pyrazolo[1,5-a] pyridine-3-carboxamide], the IC50 – broadly, the midpoint of a concentration-inhibition curve – was in the range of 0.1 to 0.5 µM.
Same read-out and setting: for `CC(C)(C)S(=O)(=O)NC(=O)c1cnn2ccc(N3CCC[C@@H]3c3cc(F)ccc3OCC(F)(F)F)cc12` [Example 49, (R)-N-(tert-butylsulfonyl)-5-(2-(5-fluoro-2-(2,2,2-trifluoroethoxy)phenyl)pyrrolidin-1-yl)pyrazolo[1,5-a]pyridine-3-carboxamide] the value was 0.1 to 0.5 µM; for `CC(C)(C)S(=O)(=O)NC(=O)c1cnn2ccc(N3CCC[C@@H]3c3cc(F)ccc3-c3ccc(F)cc3)cc12` [Example 54, (R)-N-(tert-butylsulfonyl)-5-(2-(4,4′-difluoro-[1,1′-biphenyl]-2-yl)pyrrolidin-l-yl)pyrazolo[1,5-a]pyridine-3-carboxamide], 0.1 to 0.5 µM.
In the case of `CC(C)(C)S(=O)(=O)NC(=O)c1cnn2ccc(N3CC(F)(F)CC3c3cc(F)ccc3F)cc12` (centres unmarked) [Example 133, Sodium (tert-butylsulfonyl)(5-(2-(2,5-difluorophenyl)-4,4-difluoropyrrolidin-1-yl)pyrazolo[1,5-a]pyridine-3-carbonyl)amide], the half-maximal inhibitory concentration (IC50) lay in the range of 0.1 to 0.5 µM.
Still for that read-out and setting: the result for `O=C(NS(=O)(=O)C1CCCC1)c1cnn2ccc(N3CCC[C@@H]3c3cc(F)ccc3F)cc12` [Example 13, (R)-N-(cyclopentylsulfonyl)-5-(2-(2,5-difluorophenyl)pyrrolidin-1-yl)pyrazolo[1,5-a] pyridine-3-carboxamide] reads 0.1 to 0.5 µM.
Still for that read-out and setting: the result for `O=C(NS(=O)(=O)c1ccc(N2CCOCC2)cc1)c1cnn2ccc(N3CCC[C@@H]3c3cc(F)ccc3F)cc12` [Example 29, (R)-5-(2-(2,5-difluorophenyl)pyrrolidin-1-yl)-N-((4-morpholinophenyl)sulfonyl) pyrazolo[1,5-a]pyridine-3-carboxamide] reads 0.1 to 0.5 µM; that for `O=C(NS(=O)(=O)C1CCOCC1)c1cnn2ccc(N3CCC[C@@H]3c3cc(F)ccc3F)cc12` [Example 22, (R)-5-(2-(2,5-difluorophenyl)pyrrolidin-1-yl)-N-((tetrahydro-2H-pyran-4-yl)sulfonyl) pyrazolo[1,5-a]pyridine-3-carboxamide], 0.1 to 0.5 µM; that for `CC(C)(C)S(=O)(=O)NC(=O)c1cnn2ccc(N3CCC[C@@H]3c3cc(F)ccc3F)c(F)c12` [Example 61, (R)-N-(tert-butylsulfonyl)-5-(2-(2,5-difluorophenyl)pyrrolidin-1-yl)-4-fluoro pyrazolo[1,5-a] pyridine-3-carboxamide], 0.1 to 0.5 µM.
Still for that read-out and setting: the result for `CN(C)c1ccc(S(=O)(=O)NC(=O)c2cnn3ccc(N4CCC[C@@H]4c4cc(F)ccc4F)cc23)cn1` [Example 23, (R)-5-(2-(2,5-difluorophenyl)pyrrolidin-1-yl)-N-((6-(dimethylamino)pyridin-3-yl)sulfonyl)pyrazolo[1,5-a] pyridine-3-carboxamide] reads 0.1 to 0.5 µM.

The test is the same for the next values; noted with them: 5 ng TrkA, 500 μM ATP, lower bound in nm [sic], upper bound in μM, read-out: TrkA inhibitory activity in-vitro IC50.
Turning to `COCCOc1cc(F)cc([C@H]2CCCN2c2ccn3ncc(C(=O)NS(=O)(=O)C(C)(C)C)c3c2)c1` [Example 67, (R)-N-(tert-butylsulfonyl)-5-(2-(3-fluoro-5-(2-methoxyethoxy)phenyl)pyrrolidin-1-yl) pyrazolo[1,5-a]pyridine-3-carboxamide], the IC50 is 0.5 to 1 µM.
Same read-out and setting: the result for `CC(C)(C)S(=O)(=O)NC(=O)c1cnn2ccc(N3CCC[C@@H]3c3cc(F)cc(OC4CCOC4)c3)cc12` (stereo partly drawn) [Example 68, N-(tert-butylsulfonyl)-5-((2R)-2-(3-fluoro-5-((tetrahydrofuran-3-yl)oxy)phenyl)pyrrolidin-1-yl)pyrazolo[1,5-a]pyridine-3-carboxamide] reads 0.5 to 1 µM; that for `CN1C(=O)Cc2cc(S(=O)(=O)NC(=O)c3cnn4ccc(N5CCC[C@@H]5c5cc(F)ccc5F)cc34)ccc21` [Example 21, (R)-5-(2-(2,5-difluorophenyl)pyrrolidin-1-yl)-N-((1-methyl-2-oxoindolin-5-yl)sulfonyl) pyrazolo[1,5-a]pyridine-3-carboxamide], 0.5 to 1 µM.

Staying with this test, now noted: 5 ng TrkA, 500 μM ATP, read-out: TrkA inhibition in-vitro IC50.
Take `O=C(NS(=O)(=O)c1ccc(Cl)s1)c1cnn2ccc(N3CCC[C@@H]3c3cc(F)ccc3F)cc12` [Example 31, (R)-N-((5-chlorothiophen-2-yl)sulfonyl)-5-(2-(2,5-difluorophenyl)pyrrolidin-1-yl)pyrazolo [1,5-a]pyridine-3-carboxamide]: the half-maximal inhibitory concentration (IC50) is at most 0.05 µM.
The same measure, in the same setting: the result for `CN(CC1CC1)S(=O)(=O)NC(=O)c1cnn2ccc(N3CCC[C@@H]3c3cc(F)ccc3F)cc12` [Example 80, (R)-N-(N-(cyclopropylmethyl)-N-methylsulfamoyl)-5-(2-(2,5-difluorophenyl)pyrrolidin-1-yl)pyrazolo[1,5-a]pyridine-3-carboxamide] reads at most 0.05 µM; that for `O=C(NS(=O)(=O)c1ccc(N2CC[C@H](O)C2)nc1)c1cnn2ccc(N3CCC[C@@H]3c3cc(F)cc(F)c3)cc12` [Example 73, 5-((R)-2-(3,5-difluorophenyl)pyrrolidin-1-yl)-N-((6-((S)-3-hydroxypyrrolidin-1-yl)pyridin-3-yl)sulfonyl)pyrazolo[1,5-a] pyridine-3-carboxamide], at most 0.05 µM; that for `O=C(NS(=O)(=O)C1(Cc2ccc(F)cc2)CC1)c1cnn2ccc(N3CCC[C@@H]3c3cc(F)ccc3F)cc12` [Example 41, (R)-5-(2-(2,5-difluorophenyl)pyrrolidin-1-yl)-N-((1-(4-fluorobenzyl)cyclopropyl)sulfonyl) pyrazolo[1,5-a]pyridine-3-carboxamide], at most 0.05 µM.
On the same count and under the same terms, for `CC(C)S(=O)(=O)NC(=O)c1cnn2ccc(N3CCC[C@@H]3c3cc(F)ccc3F)cc12` [Example 7, (R)-5-(2-(2,5-difluorophenyl)pyrrolidin-1-yl)-N-(isopropylsulfonyl)pyrazolo[1,5-a] pyridine-3-carboxamide] the value was at most 0.05 µM; for `CCN(CC)S(=O)(=O)NC(=O)c1cnn2ccc(N3CCC[C@@H]3c3cc(F)ccc3OCCF)cc12` [Example 88, (R)-N-(N,N-diethylsulfamoyl)-5-(2-(5-fluoro-2-(2-fluoroethoxy)phenyl)pyrrolidin-1-yl)pyrazolo[1,5-a]pyridine-3-carboxamide], at most 0.05 µM.
The same measure, in the same setting: for `CCN(CC)S(=O)(=O)NC(=O)c1cnn2ccc(N3CCC[C@@H]3c3cc(F)ccc3OC)cc12` [Example 87, (R)-N-(N,N-diethylsulfamoyl)-5-(2-(5-fluoro-2-methoxyphenyl)pyrrolidin-1-yl) pyrazolo[1,5-a]pyridine-3-carboxamide] the value was at most 0.05 µM.
Regarding `CN(C)S(=O)(=O)NC(=O)c1cnn2ccc(N3CCC[C@@H]3c3cccc(F)c3)c(F)c12` [Example 138, Sodium (R)-(N,N-dimethylsulfamoyl)(4-fluoro-5-(2-(3-fluorophenyl)pyrrolidin-1-yl)pyrazolo[1,5-a]pyridine-3-carbonyl)amide], the IC50 is at most 0.05 µM.
Same read-out and setting: the result for `CC(C)(C)S(=O)(=O)NC(=O)c1cnn2ccc(N3CCC[C@@H]3c3cc(F)ccc3OC(F)F)cc12` [Example 63, (R)-N-(tert-butylsulfonyl)-5-(2-(2-(difluoromethoxy)-5-fluorophenyl)pyrrolidin-1-yl) pyrazolo[1,5-a]pyridine-3-carboxamide] reads 0.05 to 0.1 µM.
Same read-out and setting: the result for `O=C(NS(=O)(=O)c1ccc(N2CC[C@H](O)C2)cc1)c1cnn2ccc(N3CCC[C@@H]3c3cc(F)ccc3F)cc12` [Example 8, 5-((R)-2-(2,5-difluorophenyl)pyrrolidin-1-yl)-N-((4-((S)-3-hydroxypyrrolidin-1-yl)phenyl)sulfonyl)pyrazolo[1,5-a] pyridine-3-carboxamide] reads at most 0.05 µM.
On the same count and under the same terms, for `O=C(NS(=O)(=O)N1CCOCC1)c1cnn2ccc(N3CCC[C@@H]3c3cc(F)ccc3F)cc12` [Example 84, (R)-5-(2-(2,5-difluorophenyl)pyrrolidin-1-yl)-N-(morpholinosulfonyl) pyrazolo[1,5-a]pyridine-3-carboxamide] the value was at most 0.05 µM.

The same test, now with this note: 5 ng TrkA, 500 μM ATP, read-out: TrkA inhibitory activity in-vitro IC50.
With `Cc1ncc(S(=O)(=O)NC(=O)c2cnn3ccc(N4CCC[C@@H]4c4cc(F)ccc4F)cc23)n1C` [Example 16, (R)-5-(2-(2,5-difluorophenyl)pyrrolidin-1-yl)-N-((1,2-dimethyl-1H-imidazol-5-yl)sulfonyl)pyrazolo[1,5-a] pyridine-3-carboxamide], the IC50 was in the range of 1 to 10 µM.
The same measure, in the same setting: for `CC(C)(C)S(=O)(=O)NC(=O)c1cnn2ccc(N3CCCC3c3cc(F)cc4c3OCCO4)cc12` (single isomer, unassigned) [Example 51, N-(tert-butylsulfonyl)-5-(2-(7-fluoro-2,3-dihydrobenzo [b][1,4]dioxin-5-yl)pyrrolidin-1-yl)pyrazolo[1,5-a]pyridine-3-carboxamide] the value was 1 to 10 µM; for `Cn1cnc(S(=O)(=O)NC(=O)c2cnn3ccc(N4CCC[C@@H]4c4cc(F)ccc4F)cc23)c1` [Example 18, (R)-5-(2-(2,5-difluorophenyl)pyrrolidin-1-yl)-N-((1-methyl-1H-imidazol-4-yl)sulfonyl) pyrazolo[1,5-a]pyridine-3-carboxamide], 1 to 10 µM.
